Experimental data from ChEMBL document CHEMBL4507290 (2021).

Assays:
[1] = target: Inhibitor of nuclear factor kappa-B kinase subunit beta (Homo sapiens) (UniProt O14920); settings: Compound concentration 1000.0 nM
[2] = test system: Hepatocyte growth factor receptor (Homo sapiens), P08581 [Y1235D]; settings: Compound concentration 1000.0 nM
[3] = GPCRScan assay: inhibition of GABA/PBR; set-up: species or system Rattus norvegicus; radioligand conc. used [nm] 0.3 – 2.0, parental cells brain tissue
[4] = target: Kappa-type opioid receptor (Homo sapiens) (UniProt P41145); settings: Compound concentration 10.0 uM
[5] = target: Alpha-1D adrenergic receptor (Homo sapiens) (UniProt P25100); settings: Compound concentration 10.0 uM
[6] = target: Histamine H2 receptor (Homo sapiens) (UniProt P25021); settings: Compound concentration 10.0 uM
[7] = target: 5-hydroxytryptamine receptor 1A (Homo sapiens) (UniProt P08908); settings: Compound concentration 10.0 uM
[8] = target: T1, Sodium-dependent dopamine transporter (Homo sapiens, UniProt Q01959); assay: GPCRScan assay: inhibition of DAT; set-up: radioligand conc. used [nm] 3.6 – 16.0, parental cells stable HEK
[9] = target: Alpha-1A adrenergic receptor (Homo sapiens) (UniProt P35348); settings: Compound concentration 10.0 uM
[10] = target: Alpha-1B adrenergic receptor (Homo sapiens) (UniProt P35368); settings: Compound concentration 10.0 uM
[11] = target: Alpha-1D adrenergic receptor (Homo sapiens, UniProt P25100); assay: GPCRScan assay: inhibition of Alpha1D; set-up: radioligand conc. used [nm] 0.3 – 1.0, parental cells stable
[12] = target: cAMP-dependent protein kinase catalytic subunit alpha (Homo sapiens) (UniProt P17612); settings: Compound concentration 1000.0 nM
[13] = target: MAP kinase-activated protein kinase 2 (Homo sapiens) (UniProt P49137); settings: Compound concentration 1000.0 nM
[14] = target: Inhibitor of nuclear factor kappa-B kinase subunit epsilon (Homo sapiens) (UniProt Q14164); settings: Compound concentration 1000.0 nM
[15] = target: cAMP-dependent protein kinase catalytic subunit beta (Homo sapiens) (UniProt P22694); settings: Compound concentration 1000.0 nM
[16] = target: Alpha-2C adrenergic receptor (Homo sapiens) (UniProt P18825); settings: Compound concentration 10.0 uM
D(2) dopamine receptor [17] = target: T2, D(2) dopamine receptor (Homo sapiens, UniProt P14416); assay: GPCRScan assay: inhibition of D2; set-up: radioligand conc. used [nm] 0.4 – 1.0, parental cells stable fibroblast
[18] = target: T1, Sodium-dependent dopamine transporter; assay: Functional Assay: Platelet-rich plasma SLC6A3/cAMP; type: cell-free
[19] = target: Histamine H1 receptor (Homo sapiens) (UniProt P35367); settings: Compound concentration 10.0 uM
D(2) dopamine receptor [20] = target: T2, D(2) dopamine receptor; settings: Compound concentration 10.0 uM
[21] = target: 5-hydroxytryptamine receptor 6 (Homo sapiens) (UniProt P50406); settings: Compound concentration 10.0 uM
[22] = target: Tyrosine-protein kinase ABL1 (Homo sapiens) (UniProt P00519); settings: Compound concentration 1000.0 nM
[23] = target: Dual specificity mitogen-activated protein kinase kinase 7 (Homo sapiens) (UniProt O14733); settings: Compound concentration 1000.0 nM
[24] = test system: Tyrosine-protein kinase ABL1 (Homo sapiens), P00519 [Q252H]; settings: Compound concentration 1000.0 nM
[25] = test system: Tyrosine-protein kinase ABL1 (Homo sapiens), P00519 [E255K]; settings: Compound concentration 1000.0 nM
[26] = test system: Serine/threonine-protein kinase B-raf (Homo sapiens), P15056 [V600E]; settings: Compound concentration 1000.0 nM

T1 sequence (Q01959 whole entry): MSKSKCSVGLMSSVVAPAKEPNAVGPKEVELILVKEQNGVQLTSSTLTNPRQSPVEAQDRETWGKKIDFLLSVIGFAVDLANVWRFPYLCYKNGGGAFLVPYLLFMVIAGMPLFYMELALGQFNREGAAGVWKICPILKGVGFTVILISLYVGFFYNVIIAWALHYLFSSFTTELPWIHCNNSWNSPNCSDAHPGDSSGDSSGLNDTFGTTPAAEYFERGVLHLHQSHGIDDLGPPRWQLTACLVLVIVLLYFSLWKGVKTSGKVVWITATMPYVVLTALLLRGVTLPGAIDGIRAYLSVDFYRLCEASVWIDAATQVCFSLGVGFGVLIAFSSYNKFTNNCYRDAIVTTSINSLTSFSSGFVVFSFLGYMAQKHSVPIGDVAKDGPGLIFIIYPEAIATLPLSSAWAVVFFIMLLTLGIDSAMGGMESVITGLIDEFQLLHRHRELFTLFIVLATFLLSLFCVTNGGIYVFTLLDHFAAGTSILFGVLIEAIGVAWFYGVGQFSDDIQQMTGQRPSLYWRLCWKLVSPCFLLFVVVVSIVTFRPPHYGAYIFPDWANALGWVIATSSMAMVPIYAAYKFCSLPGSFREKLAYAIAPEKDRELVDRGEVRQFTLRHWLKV
T2 sequence (P14416 whole entry): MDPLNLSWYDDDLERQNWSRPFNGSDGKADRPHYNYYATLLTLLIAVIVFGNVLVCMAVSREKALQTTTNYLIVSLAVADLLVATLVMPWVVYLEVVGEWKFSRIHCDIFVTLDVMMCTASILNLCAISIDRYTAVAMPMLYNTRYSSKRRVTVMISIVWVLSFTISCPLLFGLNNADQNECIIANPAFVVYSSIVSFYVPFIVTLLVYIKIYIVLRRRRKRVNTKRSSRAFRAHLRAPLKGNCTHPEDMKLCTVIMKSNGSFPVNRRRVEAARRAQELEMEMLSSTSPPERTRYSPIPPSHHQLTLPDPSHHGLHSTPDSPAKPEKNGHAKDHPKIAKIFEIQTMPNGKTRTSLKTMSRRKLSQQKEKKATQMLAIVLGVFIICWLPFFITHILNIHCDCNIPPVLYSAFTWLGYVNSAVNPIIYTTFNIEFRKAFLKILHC
Chain of Dual specificity mitogen-activated protein kinase kinase 7 (Homo sapiens) (O14733 whole entry): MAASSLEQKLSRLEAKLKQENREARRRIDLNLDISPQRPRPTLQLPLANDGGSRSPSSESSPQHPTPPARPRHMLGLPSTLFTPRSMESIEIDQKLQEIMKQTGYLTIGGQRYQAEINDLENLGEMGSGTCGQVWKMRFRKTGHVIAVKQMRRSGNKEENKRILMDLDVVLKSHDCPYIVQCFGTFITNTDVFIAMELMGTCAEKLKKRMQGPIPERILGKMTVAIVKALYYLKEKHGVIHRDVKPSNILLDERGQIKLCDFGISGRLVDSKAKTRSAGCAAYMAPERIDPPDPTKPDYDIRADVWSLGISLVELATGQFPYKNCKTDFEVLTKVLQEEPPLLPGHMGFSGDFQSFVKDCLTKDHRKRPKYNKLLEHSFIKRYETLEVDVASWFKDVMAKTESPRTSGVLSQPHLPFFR
Chain of 5-hydroxytryptamine receptor 6 (Homo sapiens) (P50406 whole entry): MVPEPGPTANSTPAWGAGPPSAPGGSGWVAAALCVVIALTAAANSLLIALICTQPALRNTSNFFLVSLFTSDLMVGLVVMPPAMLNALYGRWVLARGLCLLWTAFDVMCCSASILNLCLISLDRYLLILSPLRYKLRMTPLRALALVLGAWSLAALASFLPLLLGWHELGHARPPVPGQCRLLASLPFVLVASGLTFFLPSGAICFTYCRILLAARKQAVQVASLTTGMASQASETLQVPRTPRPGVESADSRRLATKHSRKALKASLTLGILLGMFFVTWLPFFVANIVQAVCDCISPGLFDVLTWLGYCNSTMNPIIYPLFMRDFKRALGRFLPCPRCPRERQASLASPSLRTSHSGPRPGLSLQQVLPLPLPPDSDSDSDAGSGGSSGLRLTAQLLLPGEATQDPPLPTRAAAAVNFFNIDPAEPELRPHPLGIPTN
Chain of Histamine H2 receptor (Homo sapiens) (P25021 whole entry): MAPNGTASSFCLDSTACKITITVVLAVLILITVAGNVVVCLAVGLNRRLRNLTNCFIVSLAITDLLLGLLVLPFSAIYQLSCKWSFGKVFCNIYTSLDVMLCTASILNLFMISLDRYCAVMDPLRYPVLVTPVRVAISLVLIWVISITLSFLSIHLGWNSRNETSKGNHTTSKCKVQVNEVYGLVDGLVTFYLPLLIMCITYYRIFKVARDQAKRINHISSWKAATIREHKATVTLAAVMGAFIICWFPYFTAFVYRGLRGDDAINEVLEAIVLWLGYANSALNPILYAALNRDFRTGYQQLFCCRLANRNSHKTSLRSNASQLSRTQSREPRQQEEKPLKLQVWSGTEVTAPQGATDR
Chain of Alpha-2C adrenergic receptor (Homo sapiens) (P18825 whole entry): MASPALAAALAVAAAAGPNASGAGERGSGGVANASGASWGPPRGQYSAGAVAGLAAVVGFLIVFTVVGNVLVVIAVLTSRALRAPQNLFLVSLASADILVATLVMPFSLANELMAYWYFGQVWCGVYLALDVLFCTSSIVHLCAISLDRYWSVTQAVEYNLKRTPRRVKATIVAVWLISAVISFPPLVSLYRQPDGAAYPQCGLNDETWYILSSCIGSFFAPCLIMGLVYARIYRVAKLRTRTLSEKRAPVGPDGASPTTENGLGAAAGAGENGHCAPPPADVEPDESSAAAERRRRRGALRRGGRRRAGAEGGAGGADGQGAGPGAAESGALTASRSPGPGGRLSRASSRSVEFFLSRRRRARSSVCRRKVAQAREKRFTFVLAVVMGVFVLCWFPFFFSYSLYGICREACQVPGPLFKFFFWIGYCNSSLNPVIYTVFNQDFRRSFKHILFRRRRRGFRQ
Chain of Inhibitor of nuclear factor kappa-B kinase subunit beta (Homo sapiens) (O14920 whole entry): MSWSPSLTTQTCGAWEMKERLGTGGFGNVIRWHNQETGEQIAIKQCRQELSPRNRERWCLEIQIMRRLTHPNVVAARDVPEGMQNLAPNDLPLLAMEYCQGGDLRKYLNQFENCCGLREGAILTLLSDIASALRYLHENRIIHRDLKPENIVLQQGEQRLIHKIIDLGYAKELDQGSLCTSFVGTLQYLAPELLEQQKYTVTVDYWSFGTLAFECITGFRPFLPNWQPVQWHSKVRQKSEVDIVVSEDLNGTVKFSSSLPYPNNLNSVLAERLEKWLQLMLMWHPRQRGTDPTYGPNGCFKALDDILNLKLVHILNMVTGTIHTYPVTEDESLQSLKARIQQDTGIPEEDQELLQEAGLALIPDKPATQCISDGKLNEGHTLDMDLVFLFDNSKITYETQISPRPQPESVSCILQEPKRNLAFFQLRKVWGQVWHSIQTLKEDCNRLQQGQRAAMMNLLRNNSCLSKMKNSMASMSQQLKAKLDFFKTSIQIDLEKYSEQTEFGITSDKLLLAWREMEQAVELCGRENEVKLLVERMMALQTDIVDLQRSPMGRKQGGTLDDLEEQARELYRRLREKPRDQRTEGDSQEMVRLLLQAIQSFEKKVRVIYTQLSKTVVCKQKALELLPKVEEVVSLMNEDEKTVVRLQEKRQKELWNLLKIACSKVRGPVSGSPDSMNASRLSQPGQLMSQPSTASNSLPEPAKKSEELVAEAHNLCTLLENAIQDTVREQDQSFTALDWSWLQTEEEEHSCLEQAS
Chain of 5-hydroxytryptamine receptor 1A (Homo sapiens) (P08908 whole entry): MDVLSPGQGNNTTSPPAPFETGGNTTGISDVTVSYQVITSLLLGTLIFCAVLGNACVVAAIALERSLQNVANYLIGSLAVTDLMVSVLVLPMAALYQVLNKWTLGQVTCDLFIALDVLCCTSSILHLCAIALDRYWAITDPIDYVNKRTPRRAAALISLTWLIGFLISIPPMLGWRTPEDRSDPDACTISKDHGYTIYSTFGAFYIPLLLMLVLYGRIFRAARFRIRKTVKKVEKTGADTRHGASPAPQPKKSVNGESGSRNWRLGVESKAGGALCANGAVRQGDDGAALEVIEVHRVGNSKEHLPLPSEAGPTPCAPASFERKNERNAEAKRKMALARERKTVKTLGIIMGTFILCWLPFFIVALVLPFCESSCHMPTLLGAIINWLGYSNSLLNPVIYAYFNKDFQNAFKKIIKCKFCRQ
Chain of MAP kinase-activated protein kinase 2 (Homo sapiens) (P49137 whole entry, looked up): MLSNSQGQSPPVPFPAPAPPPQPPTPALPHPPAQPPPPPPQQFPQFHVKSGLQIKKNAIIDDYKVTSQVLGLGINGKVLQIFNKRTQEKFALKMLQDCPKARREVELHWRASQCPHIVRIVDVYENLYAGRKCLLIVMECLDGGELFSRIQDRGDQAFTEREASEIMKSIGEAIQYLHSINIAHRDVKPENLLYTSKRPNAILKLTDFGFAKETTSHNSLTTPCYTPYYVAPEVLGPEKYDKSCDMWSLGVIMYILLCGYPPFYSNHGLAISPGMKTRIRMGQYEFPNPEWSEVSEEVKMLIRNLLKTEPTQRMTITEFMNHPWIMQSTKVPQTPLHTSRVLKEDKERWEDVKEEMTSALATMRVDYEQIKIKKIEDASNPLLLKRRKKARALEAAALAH
Chain of Alpha-1D adrenergic receptor (Homo sapiens) (P25100 whole entry): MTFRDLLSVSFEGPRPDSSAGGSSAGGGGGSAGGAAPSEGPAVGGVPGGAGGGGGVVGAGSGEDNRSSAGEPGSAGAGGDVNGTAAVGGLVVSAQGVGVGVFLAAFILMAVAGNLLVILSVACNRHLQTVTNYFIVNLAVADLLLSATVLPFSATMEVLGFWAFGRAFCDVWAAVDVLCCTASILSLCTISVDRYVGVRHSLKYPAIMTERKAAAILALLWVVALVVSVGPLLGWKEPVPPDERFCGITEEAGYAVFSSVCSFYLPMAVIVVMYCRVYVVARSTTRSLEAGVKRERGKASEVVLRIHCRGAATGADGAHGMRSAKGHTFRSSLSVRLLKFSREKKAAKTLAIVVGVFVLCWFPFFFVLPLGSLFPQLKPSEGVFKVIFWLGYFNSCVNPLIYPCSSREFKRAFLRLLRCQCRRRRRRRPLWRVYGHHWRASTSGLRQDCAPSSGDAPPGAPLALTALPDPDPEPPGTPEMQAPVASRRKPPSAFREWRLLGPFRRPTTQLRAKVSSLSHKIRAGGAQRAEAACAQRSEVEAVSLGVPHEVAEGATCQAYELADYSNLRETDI
Chain of Alpha-1D adrenergic receptor (P25100 whole entry): as above

CN([C@@H]1CCc2c(CC(=O)O)c3ccccc3n2C1)S(=O)(=O)c1ccc(F)cc1 [MK-7246]
residual activity [1]: 98%
residual activity [2]: 100%
Ki [3]: 1120 nM
pKi [3]: 5.95
inhibition [4]: 4.56%
inhibition [5]: 50%
inhibition [6]: -1.62%
inhibition [7]: 15.5%
Ki ([8]; read-out: Ki): 283 nM
Ki ([8]; read-out: pKi (converted)): 316 nM
inhibition [9]: -4.89%
inhibition [10]: -8.18%
Ki [11]: 10 µM
residual activity [12]: 100%
residual activity [13]: 100%
residual activity [14]: 84%
residual activity [15]: 100%
inhibition [16]: -3.1%
Ki (D(2) dopamine receptor [17]): 3.75 µM
IC50 [18]: 8.69 µM (not active)

CN([C@@H]1CCc2c(CC(=O)O)c3cc(S(C)(=O)=O)ccc3n2C1)S(=O)(=O)c1ccc(F)cc1
inhibition [19]: -9.04%
inhibition (D(2) dopamine receptor [20]): -3.84%
inhibition [21]: -5.39%
residual activity [22]: 74%
residual activity [23]: 100%
residual activity [24]: 98%
residual activity [25]: 100%
residual activity [26]: 90%
